Results taken from publication PMC7062757 (2020).

How the values were obtained:
[1] = system: Mango II (RNA, aptamer) GGCACGUACGAAGGAGAGGAGAGGAAGAGGAGAGUACGUGC; test: fluorescence titration, Hill fit; details: 140 mM KCl, 1 mM MgCl2; 10 mM sodium phosphate, pH 7.2, 22 °C; 40 nM RNA; apparent; per site
[2] = system: M2 x3 array (5 nt) (Mango II x3, M2x3) (RNA, aptamer) GGCACGUACGAAGGAGAGGAGAGGAAGAGGAGAGUACGUGCUUUUUGGACAUGCCGAAGGAGAGGAGAGGAAGAGGAGAGGCAUGUCCUUUUUGGGUGCAUCGAAGGAGAGGAGAGGAAGAGGAGAGAUGCACCC; test: fluorescence titration, Hill fit; details: 140 mM KCl, 1 mM MgCl2; 10 mM sodium phosphate, pH 7.2, 22 °C; 40 nM RNA; apparent; per site

## CN1C=CC(=Cc2sc3ccccc3[n+]2CC(=O)NCCOCCOCCOCCNC(=O)CCCC[C@@H]2SC[C@@H]3NC(=O)N[C@@H]32)c2ccccc21
[1]
  Kd,app: 30 ± 4 nM
[2]
  Kd,app: 80 ± 6 nM
